The results in this text go back to ChEMBL document CHEMBL1909569 (Bioorg Med Chem Lett, 2011).

The target in series [1] is T1, Nuclear receptor subfamily 1 group I member 2 (Homo sapiens, UniProt O75469).
T1 sequence (O75469 whole entry): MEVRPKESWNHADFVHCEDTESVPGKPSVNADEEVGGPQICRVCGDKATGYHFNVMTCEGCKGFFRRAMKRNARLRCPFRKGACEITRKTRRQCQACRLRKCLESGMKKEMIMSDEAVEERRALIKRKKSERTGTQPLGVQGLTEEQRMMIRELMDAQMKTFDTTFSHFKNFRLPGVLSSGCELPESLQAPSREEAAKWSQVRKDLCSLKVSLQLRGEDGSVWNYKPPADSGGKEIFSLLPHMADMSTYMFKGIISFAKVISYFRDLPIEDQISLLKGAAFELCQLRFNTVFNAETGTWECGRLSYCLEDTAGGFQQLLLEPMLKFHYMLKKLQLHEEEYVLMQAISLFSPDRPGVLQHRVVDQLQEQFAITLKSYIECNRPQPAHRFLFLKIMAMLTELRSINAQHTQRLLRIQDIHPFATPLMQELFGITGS
Kind of series: Activation of human PXR in DPX2 cells up to 100 uM after 24 hrs by microplate reader relative to control. The series is classed as ADME, cell-based.

Series [2] relates to Mycobacterium tuberculosis. Kind of series: Antimicrobial activity against replicating Mycobacterium tuberculosis after 8 days by micro plate alamar blue assay. The series is classed as functional. The following applies: 192 h.
Series [3] deals with Mycobacterium tuberculosis. The experiment in a line: Antimicrobial activity against non-replicating Mycobacterium tuberculosis after 11 days by luminescence based low oxygen recovery assay. The format is functional. The settings on record: 264 h.
The target of series [4] is T2, DNA-directed RNA polymerase subunit beta (Mycobacterium tuberculosis) (UniProt P9WGY9).
T2 sequence (whole entry): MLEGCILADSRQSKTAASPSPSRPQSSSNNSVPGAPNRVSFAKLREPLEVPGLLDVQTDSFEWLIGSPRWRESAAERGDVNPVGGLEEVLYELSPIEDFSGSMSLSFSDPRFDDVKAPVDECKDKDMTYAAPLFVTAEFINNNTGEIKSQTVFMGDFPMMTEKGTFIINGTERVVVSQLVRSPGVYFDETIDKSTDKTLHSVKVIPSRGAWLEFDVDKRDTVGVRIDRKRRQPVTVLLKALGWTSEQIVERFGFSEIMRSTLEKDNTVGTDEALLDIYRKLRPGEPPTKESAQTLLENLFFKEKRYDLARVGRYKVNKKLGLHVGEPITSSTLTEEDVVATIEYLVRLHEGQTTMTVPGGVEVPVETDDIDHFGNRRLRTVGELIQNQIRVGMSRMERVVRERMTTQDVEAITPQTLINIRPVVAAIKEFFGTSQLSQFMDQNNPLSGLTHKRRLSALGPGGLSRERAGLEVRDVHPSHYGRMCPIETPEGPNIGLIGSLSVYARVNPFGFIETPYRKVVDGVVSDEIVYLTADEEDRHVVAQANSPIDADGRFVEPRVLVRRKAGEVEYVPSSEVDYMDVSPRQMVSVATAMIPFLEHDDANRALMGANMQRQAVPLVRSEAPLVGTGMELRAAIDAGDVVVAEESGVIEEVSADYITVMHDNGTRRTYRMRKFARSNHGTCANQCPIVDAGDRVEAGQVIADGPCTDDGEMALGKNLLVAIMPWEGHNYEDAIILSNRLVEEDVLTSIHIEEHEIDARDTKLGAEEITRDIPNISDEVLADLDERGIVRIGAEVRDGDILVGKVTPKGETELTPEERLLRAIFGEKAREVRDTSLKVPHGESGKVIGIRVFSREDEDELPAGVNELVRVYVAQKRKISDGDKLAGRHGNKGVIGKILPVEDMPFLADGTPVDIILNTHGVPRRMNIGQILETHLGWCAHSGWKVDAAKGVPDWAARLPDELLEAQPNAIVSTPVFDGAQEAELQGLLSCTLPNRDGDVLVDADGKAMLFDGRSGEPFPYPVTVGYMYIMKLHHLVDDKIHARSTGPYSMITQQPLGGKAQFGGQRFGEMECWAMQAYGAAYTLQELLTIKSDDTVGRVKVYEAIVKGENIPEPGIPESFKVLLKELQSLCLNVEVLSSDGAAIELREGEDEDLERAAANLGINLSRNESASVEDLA
The experiment in a line: Ratio of compound IC50 to Rifamycin S IC50 for wild type Mycobacterium tuberculosis RNA polymerase.

Series [5] has as its system Escherichia coli. Kind of series: Antimicrobial activity against wild type Escherichia coli TG2 after 16 to 20 hrs. The series is classed as functional.
The target in series [6] is T2, DNA-directed RNA polymerase subunit beta (Mycobacterium tuberculosis). The experiment in a line: (§1) Inhibition of wild type Mycobacterium tuberculosis RNA polymerase after 10 mins using ribo green staining by rolling circle transcription assay. Details: unit not given here; call rule not given here.
The target of series [7] is T3, DNA-directed RNA polymerase subunit beta (Mycobacterium tuberculosis, UniProt P9WGY9).
T3 sequence (P9WGY9 whole entry): T2 sequence (whole entry)
The description is as §1.

Series [8] deals with Escherichia coli. The experiment in a line: Antimicrobial activity against wild type Escherichia coli DH5[alpha] after 16 to 20 hrs. The format is functional.
The subject of series [9] is Escherichia coli. Kind of series: Antimicrobial activity against Escherichia coli EC2880 mutant after 16 to 20 hrs. The format is functional.

In brackets after ≈: the same amount, converted by molar mass.

As a reminder, the MIC90 is an inhibitory concentration at the 90% level, which refers to growth in some studies and to a panel of isolates in others. On to `CO[C@H]1/C=C/O[C@@]2(C)Oc3c(c4c5c(nn(C)c5c3C)C(=C(/C=N/N3CCN(C)CC3)C4=O)NC(=O)/C(C)=C\C=C\[C@H](C)[C@H](O)[C@@H](C)[C@@H](O)[C@@H](C)[C@H](OC(C)=O)[C@@H]1C)C2=O`, for which the EC50 entry in series [1] is “Not Active”. In addition, the results for the MIC90 in [2] and in series [3] were above 4.8 µM and above 19.3 µM, respectively.

For orientation: IC50 means the concentration at which inhibition is half-maximal. Regarding `CO[C@H]1/C=C/O[C@@]2(C)Oc3c(C)c(OS(=O)(=O)c4ccc(C)cc4)c4c(c3C2=O)C(=O)C=C(NC(=O)/C(C)=C\C=C\[C@H](C)[C@H](O)[C@@H](C)[C@@H](O)[C@@H](C)[C@H](OC(C)=O)[C@@H]1C)C4=O`, the Ratio IC50 in series [4] was determined as 2. The MIC90 in [5] is above 100 µM; in [2] it was 0.2 µM (≈ 0.17 µg/mL); in [3] it was 3 µM (≈ 2.55 µg/mL); in series [8] it was above 100 µM; in [9], 3.12 µM (≈ 2.66 µg/mL). Further, the logIC50 in series [6] is -1.68. The compound also displayed a concentration for half-maximal inhibition (IC50) in series [7] of 21 nM.
